test system: 5-LO; assay: lipoxygenase inhibition: release of leukotriene B4 in polymorphonuclear human leukocytes (PMN) after addition of substances and Ca ionophore, reverse phase HPLC; type: cell-based; conditions: LTB4 release
Protocol: The pharmacological effects of the substances according to the invention are determined by the following method:
As a measure of the lipoxygenase inhibition, the release of leukotriene B4 (LTB.) in polymorphonuclear human leukocytes (PMN) was determined by addition of substances and Ca ionophore by means of reverse phase HPLC according to Borgeat, P. et al., Proc. Nat. Acad. Sci, 76, 2148-2152 (1979).
Table 1 lists by way of example the values obtained by this test for some compounds according to the invention: […]

IC50 [nM]	Structure (SMILES)
500	O=C(Nc1ccccn1)C(c1ccc(OCc2ccc3ccccc3n2)cc1)C1CCCCCC1 (stereo not shown) [Example 1, N-(2-Pyridyl)-2-[4-(quinolin-2-yl-methoxy)phenyl]-2-cycloheptyl-acetamide]
260	O=C(Nc1nnn[nH]1)C(c1ccc(OCc2ccc3ccccc3n2)cc1)C1CCCCCC1 (stereo not shown) [Example 2, N-(5-Tetrazolyl)-2-[4-(quinoline-2-yl-methoxy)phenyl]-2-cycloheptyl-acetamide]
290	O=C(NC1=NCCS1)C(c1ccc(OCc2ccc3ccccc3n2)cc1)C1CCCCCC1 (stereo not shown) [Example 3, N-(2-Thiazolinyl)-2-[4-(quinolin-2-yl-methoxy)phenyl]-2-cycloheptyl-acetamide]
430	O=C(Nc1nccs1)C(c1ccc(OCc2ccc3ccccc3n2)cc1)C1CCCCCC1 (stereo not shown) [Example 4, N-(2-Thiazolyl)-2-[4-(quinolin-2-yl-methoxy)phenyl]-2-cycloheptyl-acetamide]

Source: patent US5266578A, “Heterocyclically substituted quinolylmethoxy-phenylacetamides” (Bayer Aktiengesellschaft, priority 1991, dated 1993)
